US10774053B2, “HIV protease inhibitors” (Gilead Sciences, Inc., priority 2017, dated 2020)

Test system: HIV-1 (IIIB) in MT-4 cells
Assay: microbe, parasite or virus in culture
Type: cell-based
Conditions: Human immunodeficiency virus 1, IIIB, MT4, MT-4 cells, HIV-1; read-out: MT4 EC50
Method: Compounds were serially diluted (1:3) in DMSO on 384-well polypropylene plates and further diluted 200-fold into complete RPMI media (10% FBS, 1% P/S) using the Biotek Micro Flow and Agilent ECHO acoustic dispenser. Each plate contained up to 8 test compounds, with negative (No Drug Control) and 5 uM AZT positive controls. MT-4 cells were pre-infected with 10 uL of either RPMI (mock-infected) or a fresh 1:250 dilution of an HIV-1 (IIIB) concentrated virus stock. Infected and uninfected MT-4 cells were further diluted in complete RPMI media and added to each plate using a Micro Flow dispenser. After 5 days incubation in a humidified and temperature controlled incubator (37° C.), Cell Titer Glo (Promega) was added to the assay plates to quantify the amount of luciferase.

Row | Structure (SMILES) | EC50 [nM]
1 | CC(C)(C)C[C@]1(c2ccc(-c3cnn(C(F)F)c3)cc2)NC(=N)N([C@H](COC(=O)N[C@@H]2CC2(F)F)c2ccc(Cl)c(-n3ncnc3C(F)F)c2)C1=O (single isomer, unassigned) [Compound 334] | 8.98
2 | C[C@@H](CC#N)C[C@]1(c2ccc(-c3cnn(C(F)F)c3)cc2)NC(=N)N([C@H](COC(=O)NC2(C(F)(F)F)CC2)c2ccc(Cl)c(-n3ncnc3C(F)F)c2)C1=O (single isomer, unassigned) [Compound 346] | 31.9
3 | C[C@H](CC#N)C[C@]1(c2ccc(-c3cnn(C(F)F)c3)cc2)NC(=N)N([C@H](COC(=O)NC2(C(F)(F)F)CC2)c2ccc(Cl)c(-n3ncnc3C(F)F)c2)C1=O (single isomer, unassigned) [Compound 347] | 32
4 | COc1ccc([C@@]2(CC(C)(C)C)NC(=N)N([C@H](COC(=O)N(C)C)c3ccc(Cl)c(-c4ncccc4C)c3)C2=O)c(F)c1 [Compound 1] | 64.6
5 | CN(C)C(=O)OC[C@H](c1ccc(Cl)c(-c2ncc(-c3ccccc3)s2)c1)N1C(=N)N[C@@](c2cc(F)cc(F)c2)(C2CC2)C1=O [Compound 2] | 3000
6 | CN(C)C(=O)OC[C@H](c1ccc(Cl)c(-c2ncc(N3CCOCC3)s2)c1)N1C(=N)N[C@@](c2cc(F)cc(F)c2)(C2CC2)C1=O [Compound 3] | 5710
7 | CN(C)C(=O)OC[C@H](c1ccc(Cl)c(-c2ncc(-c3ccccc3)o2)c1)N1C(=N)N[C@@](c2cc(F)cc(F)c2)(C2CC2)C1=O [Compound 4] | 3620
8 | CN(C)C(=O)OC[C@H](c1ccc(Cl)c(-c2nccs2)c1)N1C(=N)N[C@@](c2cc(F)cc(F)c2)(C2CC2)C1=O [Compound 5] | 5710
9 | CN(C)C(=O)OC[C@H](c1ccc(Cl)c(-c2nc(-c3ccccc3)cs2)c1)N1C(=N)N[C@@](c2cc(F)cc(F)c2)(C2CC2)C1=O [Compound 6] | 5710
10 | Cc1ncoc1-c1cccc([C@@H](COC(=O)NC(C)C)N2C(=N)N[C@](CC(C)C)(c3ccccc3)C2=O)c1 [Compound 7] | 57100
11 | COc1ccc([C@@]2(CC(C)(C)C)NC(=N)N([C@H](COC(=O)N(C)C)c3ccc(Cl)c(-c4ccccn4)c3)C2=O)c(F)c1 [Compound 8] | 277
12 | COc1ccc([C@@]2(CC(C)(C)C)NC(=N)N([C@H](COC(=O)N(C)C)c3ccc(Cl)c(-c4nccn4C)c3)C2=O)c(F)c1 [Compound 9] | 1690
13 | [H]/N=C1\N[C@](CC(C)(C)C)(c2ccc(-c3cnn(C(F)F)c3)cc2F)C(=O)N1[C@H](COC(=O)NC1CC1)c1ccc(Cl)c(-c2ncn[nH]2)c1 [Compound 11] | 35.5
14 | [H]/N=C1\N[C@](CC(C)(C)C)(c2ccc(-c3cnn(C(F)F)c3)cc2F)C(=O)N1[C@H](COC(=O)NC1CC1)c1ccc(Cl)c(-c2ncccc2C)c1 [Compound 12] | 22.2
15 | [H]/N=C1\N[C@](CC(C)(C)C)(c2ccc(-c3cnn(C(F)F)c3)cc2)C(=O)N1[C@H](COC(=O)NC1CC1)c1ccc(Cl)c(-c2nccc(OC)n2)c1 [Compound 15, (S)-2-(4-chloro-3-(4-methoxypyrimidin-2-yl)phenyl)-2-((R)-4-(4-(1-(difluoromethyl)-1H-pyrazol-4-yl)phenyl)-2-imino-4-neopentyl-5-oxoimidazolidin-1-yl)ethyl cyclopropylcarbamate] | 230
16 | [H]/N=C1\N[C@](CC(C)(C)C)(c2ccc(-c3cnn(C(F)F)c3)cc2)C(=O)N1[C@H](COC(=O)NC1CC1)c1ccc(Cl)c(-c2ncc[nH]2)c1 [Compound 16] | 11.4
17 | Cn1ncnc1-c1cc([C@@H](COC(=O)NC2CC2)N2C(=N)N[C@](CC(C)(C)C)(c3ccc(-c4cnn(C(F)F)c4)cc3)C2=O)ccc1Cl [Compound 18] | 9.56
18 | CC(C)(C)C[C@]1(c2ccc(-c3cnn(C(F)F)c3)cc2)NC(=N)N([C@H](COC(=O)NC2CC2)c2ccc(Cl)c(-c3ncn[nH]3)c2)C1=O [Compound 19] | 49.9
19 | CC(C)(C)C[C@]1(c2ccc(-c3cnccn3)cc2F)NC(=N)N([C@H](COC(=O)NC2CC2)c2ccc(Cl)c(-c3ncn[nH]3)c2)C1=O [Compound 21] | 63.8
20 | CC(C)(C)C[C@]1(c2ccc(-c3cnn(C(F)F)c3)cc2)NC(=N)N([C@H](COC(=O)NC2CC2)c2ccc(Cl)c(-c3nc(Cl)c(Cl)[nH]3)c2)C1=O [Compound 23] | 70.4
21 | CC(C)(C)C[C@]1(c2ccc(-c3cnn(C(F)F)c3)cc2)NC(=N)N([C@H](COC(=O)NC2CC2)c2ccc(Cl)c(-c3cc[nH]n3)c2)C1=O [Compound 24] | 68.2
22 | CC(C)(C)C[C@]1(c2ccc(-c3cnccn3)cc2)NC(=N)N([C@H](COC(=O)NC2(C(F)(F)F)CC2)c2ccc(Cl)c(-c3ncn[nH]3)c2)C1=O [Compound 27] | 80.4

Row | Structure (SMILES) | EC50 [nM]
23 | CC(C)(C)C[C@]1(c2ccc(-c3cnccn3)cc2)NC(=N)N([C@H](COC(=O)NC2CC2)c2ccc(Cl)c(-c3ncn[nH]3)c2)C1=O [Compound 28] | 91.7
24 | [H]/N=C1\N[C@](CC(C)(C)C)(c2ccc(-c3cnn(C(F)F)c3)cc2)C(=O)N1[C@H](COC(N)=O)c1ccc(Cl)c(-c2c[nH]cn2)c1 [Compound 29] | 228
25 | [H]/N=C1\N[C@](CC(C)(C)C)(c2ccc(-c3cnn(C(F)F)c3)cc2)C(=O)N1[C@H](COC(=O)NC1CC1)c1ccc(Cl)c(-c2c[nH]cn2)c1 [Compound 30] | 120
26 | CC(C)(C)C[C@]1(c2ccc(-c3cnn(C(F)F)c3)cc2)NC(=N)N([C@H](COC(=O)NC2(C)CC2)c2ccc(Cl)c(-c3ncn[nH]3)c2)C1=O [Compound 31] | 51
27 | CC(C)(C)C[C@]1(c2ccc(-c3cnccn3)cc2)NC(=N)N([C@H](COC(=O)NC2(C)CC2)c2ccc(Cl)c(-c3ncn[nH]3)c2)C1=O [Compound 33] | 37.2
28 | CC(C)(C)C[C@]1(c2ccc(-c3cnn(C(F)F)c3)cc2)NC(=N)N([C@H](COC(=O)NC2CC2)c2ccc(Cl)c(-c3ncnn3C(F)F)c2)C1=O [Compound 35] | 98.1
29 | CC(C)(C)C[C@]1(c2ccc(-c3cnn(C(F)F)c3)cc2)NC(=N)N([C@H](COC(=O)NC2CC2)c2ccc(Cl)c(-c3cn(C(F)F)cn3)c2)C1=O [Compound 36] | 89.3
30 | CC(C)(C)C[C@]1(c2ccc(-c3cnn(C(F)F)c3)cc2)NC(=N)N([C@H](COC(=O)NC2CC2)c2ccc(Cl)c(-c3cncn3C(F)F)c2)C1=O [Compound 37] | 219
31 | CC(C)(C)C[C@]1(c2ccc(-c3cnn(C(F)F)c3)cc2)NC(=N)N([C@H](COC(=O)NC2CC2)c2ccc(Cl)c(-c3ncnn3C3CC3)c2)C1=O [Compound 38] | 9.83
32 | [H]/N=C1\N[C@](CC(C)(C)C)(c2ccc(-c3cnn(C(F)F)c3)cc2)C(=O)N1[C@H](COC(=O)NC1CC1)c1ccc(Cl)c(-c2nncs2)c1 [Compound 39] | 29.8
33 | Cc1nnc(-c2cc([C@@H](COC(=O)NC3CC3)N3C(=N)N[C@](CC(C)(C)C)(c4ccc(-c5cnn(C(F)F)c5)cc4)C3=O)ccc2Cl)[nH]1 [Compound 40] | 84.1
34 | Cn1cc(-c2cc([C@@H](COC(=O)NC3CC3)N3C(=N)N[C@](CC(C)(C)C)(c4ccc(-c5cnn(C(F)F)c5)cc4)C3=O)ccc2Cl)nn1 [Compound 41] | 18.1
35 | CC(C)(C)C[C@]1(c2ccc(-c3cnn(C(F)F)c3)cc2)NC(=N)N([C@H](CO)c2ccc(Cl)c(-c3ncn[nH]3)c2)C1=O [Compound 42] | 103
36 | CC(C)(C)C[C@]1(c2ccc(-c3cnn(C(F)F)c3)cc2)NC(=N)N([C@H](COC(=O)NC2(C)CC2)c2ccc(Cl)c(-c3ncnn3C3CC3)c2)C1=O [Compound 43] | 8.18
37 | [H]/N=C1\N[C@](CC(C)(C)C)(c2ccc(-c3cnn(C(F)F)c3)cc2)C(=O)N1[C@H](COC(=O)NC1CC1)c1ccc(Cl)c(-c2nnc(C3CC3)s2)c1 [Compound 44] | 246
38 | CC(C)(C)C[C@]1(c2ccc(-c3cnn(C(F)F)c3)cc2)NC(=N)N([C@H](COC(=O)NC(C)(C)C(F)(F)F)c2ccc(Cl)c(-c3ncn[nH]3)c2)C1=O [Compound 45] | 31.7
39 | CC(C)(C)C[C@]1(c2ccc(-c3cnn(C(F)F)c3)cc2)NC(=N)N([C@H](CO)c2ccc(Cl)c(-c3ncnn3C3CC3)c2)C1=O [Compound 46] | 37.6
40 | CC(C)(C)C[C@]1(c2ccc(-c3cnn(C(F)F)c3)cc2)NC(=N)N([C@H](COC(=O)NC2(C)CC2)c2ccc(Cl)c(-c3ccccn3)c2)C1=O [Compound 47] | 60.9
41 | [H]/N=C1\N[C@](CC(C)(C)C)(c2ccc(-c3cnn(C(F)F)c3)cc2)C(=O)N1[C@H](COC(=O)NC1CC1)c1ccc(Cl)c(-c2ncns2)c1 [Compound 48] | 80
42 | [H]/N=C1\N[C@](CC(C)(C)C)(c2ccc(-c3cnn(C4CC4)c3)cc2)C(=O)N1[C@H](COC(=O)N1CC(F)(F)C1)c1ccc(Cl)c(-c2ccccn2)c1 [Compound 49] | 68.1
43 | CC(C)(C)C[C@]1(c2ccc(-c3ccccn3)cc2)NC(=N)N([C@H](COC(=O)NC2(C(F)(F)F)CC2)c2ccc(Cl)c(-c3ncn[nH]3)c2)C1=O [Compound 60] | 28.5

Same assay, conditions: Human immunodeficiency virus 1, IIIB, MT4, read-out: MT4 EC50 (nM)

Row | Structure (SMILES) | EC50 [nM]
44 | [H]/N=C1\N[C@](CC(C)(C)C)(c2ccc(OC)cc2F)C(=O)N1[C@H](COC(=O)N(C)C)c1ccc(Cl)c(-c2ncccc2F)c1 [Compound 10] | 91.9
45 | [H]/N=C1\N[C@](CC(C)(C)C)(c2ccc(-c3cnn(C(F)F)c3)cc2F)C(=O)N1[C@H](COC(=O)NC1CC1)c1ccc(Cl)c(-c2ncccc2Cl)c1 [Compound 13] | 310
46 | [H]/N=C1\N[C@](CC(C)(C)C)(c2ccc(-c3cnn(C(F)F)c3)cc2F)C(=O)N1[C@H](COC(=O)NC1CC1)c1ccc(Cl)c(-c2ncccn2)c1 [Compound 14] | 68.6
47 | CC(C)(C)C[C@]1(c2ccc(-c3cnn(C(F)F)c3)cc2)NC(=N)N([C@H](COC(=O)NC2(C(F)(F)F)CC2)c2ccc(Cl)c(-c3ncn[nH]3)c2)C1=O [Compound 25] | 52.7
